Results from patent US20240116985A1, “STAPLED PEPTIDES AND METHODS THEREOF” (priority 2020, published 2024).
Read-outs that look alike come from different tables or passages of the source.

Legend:
[1] = biological target: T1, full-length beta-Catenin (Uniprot ID P35222) (Homo sapiens, UniProt P35222); assay: Fluorescence polarization IC50 (beta-catenin / 5FAM-TCF4 10-53 competition); type: binding
T1 construct: 10 nM full-length beta-Catenin (Uniprot ID P35222)
T1 sequence (P35222 1-781): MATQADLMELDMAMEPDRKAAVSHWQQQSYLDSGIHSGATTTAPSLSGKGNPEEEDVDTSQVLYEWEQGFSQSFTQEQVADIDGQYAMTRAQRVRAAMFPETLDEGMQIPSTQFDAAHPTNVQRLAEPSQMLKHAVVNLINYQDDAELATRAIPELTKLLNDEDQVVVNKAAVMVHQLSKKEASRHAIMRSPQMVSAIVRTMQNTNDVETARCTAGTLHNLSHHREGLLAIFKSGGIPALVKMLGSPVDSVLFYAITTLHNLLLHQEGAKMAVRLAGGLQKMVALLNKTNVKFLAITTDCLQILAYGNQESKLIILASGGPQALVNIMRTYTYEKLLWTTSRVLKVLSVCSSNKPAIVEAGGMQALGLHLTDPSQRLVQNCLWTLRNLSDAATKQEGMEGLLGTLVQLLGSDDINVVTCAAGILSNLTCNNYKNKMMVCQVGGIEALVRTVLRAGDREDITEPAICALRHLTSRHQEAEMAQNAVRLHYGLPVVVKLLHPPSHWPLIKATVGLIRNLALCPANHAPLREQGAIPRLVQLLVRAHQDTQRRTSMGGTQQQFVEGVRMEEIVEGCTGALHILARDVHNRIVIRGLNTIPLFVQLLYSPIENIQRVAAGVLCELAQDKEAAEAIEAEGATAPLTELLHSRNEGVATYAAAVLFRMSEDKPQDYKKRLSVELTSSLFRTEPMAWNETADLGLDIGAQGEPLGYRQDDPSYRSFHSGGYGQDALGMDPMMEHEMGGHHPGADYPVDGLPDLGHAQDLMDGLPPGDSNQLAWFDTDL

[2] = biological target: T2, beta-catenin/TCF4 engagement (Homo sapiens, UniProt P35222); assay: Nano-BRET target engagement assay (B-cat-Halo & TCF4-Luc in HEK293 cells); type: cell-based; settings: read-out: NanoBRET Abs IC50
T2 construct: expressed in transfected cells; host or cells: HEK293
T2 sequence (P35222 1-781): T1 sequence (P35222 1-781)

[3] = fluorescence polarization; read-out: beta-Catenin FP IC50

| SMILES | IC50 [1, 3] [nM] | IC50 [2] [nM] | IC50 ([1]; read-out: beta-Catenin FP IC50; fluorescence polarization) [nM] |
| --- | --- | --- | --- |
| CC(=O)N1CCC[C@]12CC=CCCCC1(CCCC=CCCCOC(=O)N3CC[C@@](C(=O)N[C@@H](Cc4ccsc4)C(=O)N[C@@H](Cc4csc5ccccc45)C(=O)N[C@@H](CCC(N)=O)C(N)=O)(C3)NC(=O)[C@H](CC(C)C)NC(=O)[C@H](Cc3cccc(C(=O)O)c3)NC(=O)[C@H](C)NC(=O)[C@H](C)NC(=O)[C@H](Cc3ccc(O)cc3)NC(=O)[C@H](CC(=O)O)NC1=O)NC(=O)[C@H](CC(C)(C)C)NC(=O)[C@H](CC(=O)O)NC2=O (stereo partly drawn) [I-2126, Ac-PL3-Asp-Npg-B5-Asp-Tyr-Ala-Ala-3COOHF-Leu-PyrS2-3Thi-BztA-Gln-NH2] | 68 | 29500 | – |
| CC(=O)N1CCC[C@]12CC=CCCCC1(CCCC=CCCCOC(=O)N3CC[C@@](C(=O)N[C@@H](Cc4ccsc4)C(=O)N[C@@H](Cc4csc5ccccc45)C(=O)N[C@@H](CCC(N)=O)C(N)=O)(C3)NC(=O)[C@H](CCO)NC(=O)[C@H](Cc3cccc(C(=O)O)c3)NC(=O)[C@H](C)NC(=O)[C@H](C)NC(=O)[C@H](Cc3c[nH]c4ccccc34)NC(=O)[C@H](CC(=O)O)NC1=O)NC(=O)[C@H](CC(C)(C)C)NC(=O)[C@H](CC(=O)O)NC2=O (stereo partly drawn) [I-2128, Ac-PL3-Asp-Npg-B5-Asp-Trp-Ala-Ala-3COOHF-Hse-PyrS2-3Thi-BztA-Gln-NH2] | 29 | 27000 | – |
| CC(=O)N1CCC[C@]12CC=CCCCC1(CCCC=CCCCOC(=O)N3CC[C@@](C(=O)N[C@@H](Cc4ccsc4)C(=O)N[C@@H](Cc4csc5ccccc45)C(=O)N[C@@H](C)C(N)=O)(C3)NC(=O)[C@H](CC(N)=O)NC(=O)[C@H](Cc3ccccc3)NC(=O)[C@H](C)NC(=O)[C@H](C)NC(=O)[C@H]([C@@H](C)O)NC(=O)[C@H](CC(N)=O)NC1=O)NC(=O)[C@H](CC(C)(C)C)NC(=O)[C@H](CC(=O)O)NC2=O (stereo partly drawn) [I-2142, Ac-PL3-Asp-Npg-B5-Asn-Thr-Ala-Ala-Phe-Asn-PyrS2-3Thi-BztA-Ala-NH2] | 271 | > 20000 | – |
| CC(=O)N1CCC[C@]12CC=CCC1(CC=CCCCOC(=O)N3CC[C@@](C(=O)N[C@@H](Cc4ccsc4)C(=O)N[C@@H](Cc4csc5ccccc45)C(=O)N[C@@H](CCC(N)=O)C(N)=O)(C3)NC(=O)[C@H](CC(C)C)NC(=O)[C@H](Cc3ccccc3)NC(=O)[C@H](C)NC(=O)[C@H](C)NC(=O)[C@H](CC(=O)O)NC(=O)[C@H](CC(=O)O)NC1=O)NC(=O)[C@H](CC(C)(C)C)NC(=O)[C@H](CC(=O)O)NC2=O (stereo partly drawn) [I-2156, Ac-PL3-Asp-Npg-B3-Asp-Asp-Ala-Ala-Phe-Leu-PyrS2-3Thi-BztA-Gln-NH2] | 387 | > 20000 | – |
| CC(=O)N1CCC[C@]12CCCCC1(CCCCCCCOC(=O)N3CC[C@@](C(=O)N[C@@H](Cc4ccsc4)C(=O)N[C@@H](Cc4csc5ccccc45)C(=O)N[C@@H](CCC(N)=O)C(N)=O)(C3)NC(=O)[C@H](CC(C)C)NC(=O)[C@H](Cc3ccccc3)NC(=O)[C@H](C)NC(=O)[C@H](C)NC(=O)[C@H](CC(=O)O)NC(=O)[C@H](CC(=O)O)NC1=O)NC(=O)[C@H](CC(C)(C)C)NC(=O)[C@H](CC(=O)O)NC2=O (stereo partly drawn) [I-2161, Ac-PL3-Asp-Npg-B3-Asp-Asp-Ala-Ala-Phe-Leu-PyrS3-3Thi-BztA-Gln-NH2] | 855 | > 20000 | – |
| CC(=O)N1CCC[C@]12CCCCC1(CCCCCCCCOC(=O)N3CC[C@](C(=O)N[C@@H](Cc4ccsc4)C(=O)N[C@@H](Cc4csc5ccccc45)C(=O)N[C@@H](CCC(N)=O)C(N)=O)(C3)NC(=O)[C@H](CC(C)C)NC(=O)[C@H](Cc3ccccc3)NC(=O)[C@H](C)NC(=O)[C@H](C)NC(=O)[C@H](CC(=O)O)NC(=O)[C@H](CC(=O)O)NC1=O)NC(=O)[C@H](CC(C)(C)C)NC(=O)[C@H](CC(=O)O)NC2=O (stereo partly drawn) [I-2162, Ac-PL3-Asp-Npg-B3-Asp-Asp-Ala-Ala-Phe-Leu-PyrS4-3Thi-BztA-Gln-NH2] | 1160 | > 20000 | – |
| CC(=O)N1CCC[C@]12CC=CCCCC1(CCCC=CCCCOC(=O)N3CC[C@@](C(=O)N[C@@H](Cc4ccccc4)C(=O)N[C@@H](Cc4csc5ccccc45)C(=O)N[C@@H](CCO)C(N)=O)(C3)NC(=O)[C@H](CC(N)=O)NC(=O)[C@H](Cc3ccccc3)NC(=O)[C@H](C)NC(=O)[C@H](CCCCNC(C)C)NC(=O)[C@H](CCC(N)=O)NC(=O)[C@H](CC(=O)O)NC1=O)NC(=O)[C@H](CC1CCCCC1)NC(=O)[C@H](CC(N)=O)NC2=O (stereo partly drawn) [I-2167, Ac-PL3-Asn-Cha-B5-Asp-Gln-iPrLys-Ala-Phe-Asn-PyrS2-Phe-BztA-Hse-NH2] | 199 | > 20000 | – |
| CC(=O)N1CCC[C@]12CC=CCCCC1(CCCC=CCCCOC(=O)N3CC[C@@](C(=O)N[C@@H](Cc4ccccc4C(N)=O)C(=O)N[C@@H](Cc4csc5ccccc45)C(=O)N[C@@H](CCO)C(N)=O)(C3)NC(=O)[C@H](CC(N)=O)NC(=O)[C@H](Cc3ccccc3)NC(=O)[C@H](C)NC(=O)[C@H](CCCCNC(C)C)NC(=O)[C@H](CCC(N)=O)NC(=O)[C@H](CC(=O)O)NC1=O)NC(=O)[C@H](CC1CCCCC1)NC(=O)[C@H](CC(N)=O)NC2=O (stereo partly drawn) [I-2168, Ac-PL3-Asn-Cha-B5-Asp-Gln-iPrLys-Ala-Phe-Asn-PyrS2-2cbmf-BztA-Hse-NH2] | 212 | > 20000 | – |
| CC(=O)N1CCC[C@]12CC=CCCCC1(CCCC=CCCCOC(=O)N3CC[C@@](C(=O)N[C@@H](Cc4ccsc4)C(=O)N[C@@H](Cc4csc5ccccc45)C(=O)N[C@@H](CCC(N)=O)C(N)=O)(C3)NC(=O)[C@H](CC(C)C)NC(=O)[C@@H](Cc3cccc(S(=O)(=O)F)c3)NC(=O)[C@H](C)NC(=O)[C@H](C)NC(=O)[C@H](CN(CC(=O)O)CC(F)(F)F)NC(=O)[C@H](CC(=O)O)NC1=O)NC(=O)[C@H](CC(C)(C)C)NC(=O)[C@H](CC(=O)O)NC2=O (stereo partly drawn) [I-2185, Ac-PL3-Asp-Npg-B5-Asp-TfeGA-Ala-Ala-3SO2F-Leu-PyrS2-3Thi-BztA-Gln-NH2] | – | 6100 | 42 |

Second part, led by results:

| IC50 [1, 3] [nM] | IC50 [2] [nM] | SMILES | IC50 ([1]; read-out: beta-Catenin FP IC50; fluorescence polarization) [nM] |
| --- | --- | --- | --- |
| 12 | > 20000 | CC(=O)N1CCC[C@]12CC=CCCCC1(CCCC=CCCCOC(=O)N3CC[C@@](C(=O)N[C@@H](Cc4ccsc4)C(=O)N[C@@H](Cc4csc5ccccc45)C(=O)N[C@@H](CCC(N)=O)C(N)=O)(C3)NC(=O)[C@H](CCO)NC(=O)[C@H](Cc3cccc(C(=O)O)c3)NC(=O)[C@H](C)NC(=O)[C@H](C)NC(=O)[C@H](Cc3c[nH]cn3)NC(=O)[C@H](CC(=O)O)NC1=O)NC(=O)[C@H](CC(C)(C)C)NC(=O)[C@H](CC(=O)O)NC2=O (stereo partly drawn) [I-2121, Ac-PL3-Asp-Npg-B5-Asp-His-Ala-Ala-3COOHF-Hse-PyrS2-3Thi-BztA-Gln-NH2] | – |
| 12 | 34400 | CC(=O)N1CCC[C@]12CC=CCCCC1(CCCC=CCCCOC(=O)N3CC[C@@](C(=O)N[C@@H](Cc4ccsc4)C(=O)N[C@@H](Cc4csc5ccccc45)C(=O)N[C@@H](CCC(N)=O)C(N)=O)(C3)NC(=O)[C@H](CC(C)C)NC(=O)[C@H](Cc3cccc(C(=O)O)c3)NC(=O)[C@H](C)NC(=O)[C@H](C)NC(=O)[C@H](Cc3c[nH]cn3)NC(=O)[C@H](CC(=O)O)NC1=O)NC(=O)[C@H](CC(C)(C)C)NC(=O)[C@H](CC(=O)O)NC2=O (stereo partly drawn) [I-2122, Ac-PL3-Asp-Npg-B5-Asp-His-Ala-Ala-3COOHF-Leu-PyrS2-3Thi-BztA-Gln-NH2] | – |
| 12 | 26900 | CC(=O)N1CCC[C@]12CC=CCCCC1(CCCC=CCCCOC(=O)N3CC[C@@](C(=O)N[C@@H](Cc4ccsc4)C(=O)N[C@@H](Cc4csc5ccccc45)C(=O)N[C@@H](CCC(N)=O)C(N)=O)(C3)NC(=O)[C@H](CC(C)C)NC(=O)[C@H](Cc3cccc(C(=O)O)c3)NC(=O)[C@H](C)NC(=O)[C@H](C)NC(=O)[C@H](Cc3c[nH]cn3)NC(=O)[C@H](CC(=O)O)NC1=O)NC(=O)[C@H](CC(C)(C)C)NC(=O)[C@H](CC(=O)O)NC2=O (stereo partly drawn) [I-2123, Ac-PL3-Asp-Npg-B5-Asp-His-Ala-Ala-3COOHF-Leu-PyrS2-3Thi-BztA-Gln-NH2] | – |
| 5 | 11100 | CC(=O)N1CCC[C@]12CC=CCCCC1(CCCC=CCCCOC(=O)N3CC[C@@](C(=O)N[C@@H](Cc4ccsc4)C(=O)N[C@@H](Cc4ccc(Cl)c(Cl)c4)C(=O)N[C@@H](CCC(N)=O)C(N)=O)(C3)NC(=O)[C@H](CC(N)=O)NC(=O)[C@H](Cc3ccccc3)NC(=O)[C@H](C)NC(=O)[C@H](C)NC(=O)[C@H](CC(=O)O)NC(=O)[C@H](CC(=O)O)NC1=O)NC(=O)[C@H](CC(C)(C)C)NC(=O)[C@H](CC(=O)O)NC2=O (stereo partly drawn) [I-2182, Ac-PL3-Asp-Npg-B5-Asp-Asp-Ala-Ala-Phe-Asn-PyrS2-3Thi-34C1F-Gln-NH2] | – |
| 5 | 5000 | CC(=O)N1CCC[C@]12CC=CCCCC1(CCCC=CCCCOC(=O)N3CC[C@@](C(=O)N[C@@H](Cc4ccsc4)C(=O)N[C@@H](Cc4ccc(Cl)c(Cl)c4)C(=O)N[C@@H](CCC(N)=O)C(N)=O)(C3)NC(=O)[C@H](CC(C)C)NC(=O)[C@H](Cc3ccccc3)NC(=O)[C@H](C)NC(=O)[C@H](C)NC(=O)[C@H](CC(=O)O)NC(=O)[C@H](CC(=O)O)NC1=O)NC(=O)[C@H](CC(C)(C)C)NC(=O)[C@H](CC(=O)O)NC2=O (stereo partly drawn) [I-2183, Ac-PL3-Asp-Npg-B5-Asp-Asp-Ala-Ala-Phe-Leu-PyrS2-3Thi-34C1F-Gln-NH2] | – |
